Drawing on ChEMBL document CHEMBL1138159, “Enantiomer discrimination illustrated by the high resolution crystal structures of type 4 phosphodiesterase” (J Med Chem, 2006), this text covers Ki and IC50 for two compounds.

pIC50, pKi: −log10 of the molar value.

The target in assay [1] is T1, 3',5'-cyclic-AMP phosphodiesterase 4A (Homo sapiens, UniProt P27815). Description: Inhibition of PDE4A with respect to increase in cAMP concentration.
Assay [2] deals with 3',5'-cyclic-AMP phosphodiesterase 4B (Homo sapiens, UniProt Q07343). Description: Inhibition of PDE4B.
The target in assay [3] is 3',5'-cyclic-AMP phosphodiesterase 4C (Homo sapiens, UniProt Q08493). Description: Inhibition of PDE4C.
Assay [4] has as its target T1, 3',5'-cyclic-AMP phosphodiesterase 4A. Kind of assay: Inhibition of PDE4A.

T1 sequence (P27815 whole entry): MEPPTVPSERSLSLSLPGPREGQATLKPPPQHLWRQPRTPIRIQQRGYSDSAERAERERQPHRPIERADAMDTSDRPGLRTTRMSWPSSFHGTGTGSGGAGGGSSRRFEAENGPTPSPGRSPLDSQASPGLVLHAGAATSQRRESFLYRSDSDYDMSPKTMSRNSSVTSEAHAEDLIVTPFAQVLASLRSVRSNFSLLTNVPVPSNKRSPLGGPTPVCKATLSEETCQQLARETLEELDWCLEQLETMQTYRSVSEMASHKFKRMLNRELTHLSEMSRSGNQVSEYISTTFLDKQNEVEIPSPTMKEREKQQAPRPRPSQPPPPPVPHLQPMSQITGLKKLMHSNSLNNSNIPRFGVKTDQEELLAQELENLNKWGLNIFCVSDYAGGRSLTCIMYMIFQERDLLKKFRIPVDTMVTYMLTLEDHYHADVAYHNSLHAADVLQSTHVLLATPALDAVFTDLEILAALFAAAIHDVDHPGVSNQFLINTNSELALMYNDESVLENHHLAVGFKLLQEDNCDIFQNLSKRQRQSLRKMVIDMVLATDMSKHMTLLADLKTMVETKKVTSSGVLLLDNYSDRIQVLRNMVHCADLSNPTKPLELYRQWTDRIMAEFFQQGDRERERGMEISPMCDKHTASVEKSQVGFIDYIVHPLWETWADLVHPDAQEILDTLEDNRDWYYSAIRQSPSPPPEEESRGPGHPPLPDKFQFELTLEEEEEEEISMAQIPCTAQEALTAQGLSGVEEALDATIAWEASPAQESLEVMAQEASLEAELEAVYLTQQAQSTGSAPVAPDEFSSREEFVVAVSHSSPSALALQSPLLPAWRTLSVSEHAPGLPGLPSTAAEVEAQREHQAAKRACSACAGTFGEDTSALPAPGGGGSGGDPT
Sequence of 3',5'-cyclic-AMP phosphodiesterase 4C (Q08493 whole entry): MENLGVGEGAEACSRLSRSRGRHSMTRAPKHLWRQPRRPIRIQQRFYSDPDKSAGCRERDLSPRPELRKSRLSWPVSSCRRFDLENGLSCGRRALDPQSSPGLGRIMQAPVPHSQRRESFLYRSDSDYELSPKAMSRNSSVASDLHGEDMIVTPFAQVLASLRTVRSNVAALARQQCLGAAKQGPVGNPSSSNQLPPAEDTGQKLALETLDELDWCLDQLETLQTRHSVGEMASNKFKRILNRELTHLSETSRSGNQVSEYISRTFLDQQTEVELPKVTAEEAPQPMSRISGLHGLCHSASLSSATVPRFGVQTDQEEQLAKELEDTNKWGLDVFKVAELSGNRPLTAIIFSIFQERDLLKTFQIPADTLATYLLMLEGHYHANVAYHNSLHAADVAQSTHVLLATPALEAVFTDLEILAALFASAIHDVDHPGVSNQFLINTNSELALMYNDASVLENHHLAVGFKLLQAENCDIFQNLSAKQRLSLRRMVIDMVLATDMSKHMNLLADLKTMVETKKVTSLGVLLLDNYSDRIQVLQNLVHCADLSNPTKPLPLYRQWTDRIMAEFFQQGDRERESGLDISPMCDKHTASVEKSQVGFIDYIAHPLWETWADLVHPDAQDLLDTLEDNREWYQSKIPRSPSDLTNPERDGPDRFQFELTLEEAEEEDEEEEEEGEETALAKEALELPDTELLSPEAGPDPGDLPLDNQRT
Sequence of 3',5'-cyclic-AMP phosphodiesterase 4B (Q07343 whole entry): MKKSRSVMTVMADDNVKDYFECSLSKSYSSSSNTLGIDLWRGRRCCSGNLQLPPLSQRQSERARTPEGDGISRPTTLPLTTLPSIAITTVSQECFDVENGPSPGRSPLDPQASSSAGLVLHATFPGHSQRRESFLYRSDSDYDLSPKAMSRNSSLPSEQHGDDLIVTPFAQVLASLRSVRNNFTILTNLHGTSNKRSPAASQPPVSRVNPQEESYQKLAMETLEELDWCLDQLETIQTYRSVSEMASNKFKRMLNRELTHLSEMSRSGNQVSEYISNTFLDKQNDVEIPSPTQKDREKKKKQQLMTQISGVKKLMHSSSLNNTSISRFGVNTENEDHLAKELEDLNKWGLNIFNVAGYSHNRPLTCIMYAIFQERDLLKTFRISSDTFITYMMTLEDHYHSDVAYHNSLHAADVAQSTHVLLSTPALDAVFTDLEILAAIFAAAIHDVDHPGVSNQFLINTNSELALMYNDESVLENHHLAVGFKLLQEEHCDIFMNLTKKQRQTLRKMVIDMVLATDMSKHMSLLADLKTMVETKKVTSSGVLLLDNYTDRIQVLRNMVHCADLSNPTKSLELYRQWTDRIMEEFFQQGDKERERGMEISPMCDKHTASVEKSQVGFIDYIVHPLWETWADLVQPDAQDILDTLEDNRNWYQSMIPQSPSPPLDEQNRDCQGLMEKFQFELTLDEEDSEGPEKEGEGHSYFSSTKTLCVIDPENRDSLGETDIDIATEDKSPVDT

The pKi is −log10 of the Ki, conventionally taken in molar units. Read a high pKi as a low Ki. On to `[O-][n+]1cccc(C[C@@H](c2ccc(OC(F)F)c(OC3CC3)c2)c2cnc(C(O)(C(F)(F)F)C(F)(F)F)s2)c1`, for which the pKi in assay [1] was 9.37.
One may read the pIC50 as −log10 of the IC50, conventionally taken in molar units. As for `[O-][n+]1cccc(C[C@H](c2ccc(OC(F)F)c(OC3CC3)c2)c2cnc(C(O)(C(F)(F)F)C(F)(F)F)s2)c1`, the negative-log IC50 (pIC50) in assay [2] was 7.40; in assay [3], 6.87; in assay [4] it was 7.25.
